# Data reported in US6924252B1, “Weed control” (Aventis Agriculture Limited, priority 1999, dated 2005).
# Experiments:
# Type in all cases: in vivo
# [1] = system: Amaranthus retroflexus; assay: Glasshouse pot test, soil surface application, visual % reduction (Example 1); conditions: 14 DAT
# Description: (§1) 7×7 cm^2 pots were filled with a non-sterile loam soil. Weed seeds (Amaranthus retroflexus, Echinochloa crus galli and Setaria viridis) were placed in three separate shallow wells with a maize seed (Pioneer 3394) inserted to a depth of 4 cm in between in each pot and the seeds lightly covered with soil. A 1 ml solution of technical isoxaflutole, suitably diluted to give a dose equivalent to 6.25, 12.5, 25, 50 and 100 g/ha in acetonitrile, was pipetted evenly on the soil surface of pots (replicated 10 times), according to the following regime. On day 1, a set of 5 pots were treated with 5 dose rates (6.25-100 g/ha) and set aside in the glasshouse. At the same time, on day 1 a second set of 4 pots were with 4 dose rates (treatment A. 6.25-50 g/ha) along with a third set of 3 pots treated with 3 dose rates (treatment B: 6.25-25 g/ha). On day 2 each of the second and third pots were treated again the pots receiving identical treatments A and B and second set of pots set aside in the glasshouse. On day 3 each of the third set of pots were treated again, the pots receiving identical treatment B. On day 4 each of the third set of pots were treated, the pots receiving identical treatment B and the pots set aside in the glasshouse. The pots were maintained in a glasshouse, with overhead watering (3×daily) and supplementary lighting. Visual assessment of % reduction, compared to untreated control plants was recorded 14 days after treatment. The results (average of 10 replicates) arm shown on Table 1, where the dosing regime refers to the number of daily applications followed by the dose of compound on each day.
# [2] = system: Setaria viridis; assay: as above; conditions: 14 DAT
# Description: as §1
# [3] = system: Echinochloa crus galli; assay: as above; conditions: 14 DAT
# Description: as §1
# [4] = system: Echinochloa crus-galli; assay: Sequential soil surface application on plots (Example 5); conditions: 14 DAT
# Text: (§2) Maize is sown and grown up in an area where weeds and weed seedlings are present. The weeds are Amaranthus retroflexus, Echinochloa crus-galli and Setaria viridis. Solutions of isoxazole in acetonitrile were applied directly to the soil surface at dose rates of 100, 50 and 25 g/ha to plots A, B and C respectively. 1 DAT dose rates of 50 and 25 g/ha were applied to plots B and C respectively, 2 and 3 DAT a dose rate of 25 g/ha was applied to plot C.
# (§3) Activity of the isoxazole on maize and weed species was observed 14 DAT.
# [5] = system: Amaranthus retroflexus; assay: as above; conditions: 14 DAT
# Text: as §2, §3
# [6] = system: Setaria viridis; assay: as above; conditions: 14 DAT
# Text: as §2, §3
# [7] = system: Maize; assay: as above; conditions: 14 DAT
# Text: as §2, §3
# [8] = system: Maize; assay: Activity on crop after spraying on sown maize (Example 3); conditions: 105 g/ha, observed after 3 weeks
# Text: (§4) Maize is sown and then grown up in area where weeds and weed seeds are present. The weeds are a selection from: Alopecurus myosuroides, Avena fatua, Digitaria sanguinalis, Echinochloa crus-galli, Eleusine indica, Lolium multiflorum, Setaria viridis, Sorghum halepense, Cyperus esculentus, Cyperus iria, Cyperus rotundus, Eleocharis acicularis, Abutilon theophrasti, Amaranthus retroflexus, Bidens pilosa, Chenopodium album, Galium aparine, Ipomgoea purpurea, Lamium purpureum, Matricaria inodora, Sesbania exalta, Sinapis arvensis, Solanum nigrum, Stellaria media, Veronica hederifolia, Veronica Persia, Viola arvensis and Xanthium strumarium.
# After one week sowing the maize, isoxazole is sprayed as an encapsulated formulation as hereinbefore described at a rate of 105 g/ha of herbicidally active compound, the weight ratio of isoxazole: copolyester being 1:10. The amounts of isoxazole of formula (I) and DKN were measured after 4 days in a 5 cm deep soil core around the seed or seedling.
# The activity of the isoxazole on the crop and weeds was observed after 3 weeks, and found to be equal to 2% and 95% respectively.
# [9] = system: weeds; assay: Activity on weeds after spraying on sown maize (Example 3); conditions: 105 g/ha, observed after 3 weeks
# Text: as §4, with “[…],” for “exalta,”, “[…],” for “Persia,”, “strumarium. […] The amounts of isoxazole of formula (I) and DKN were measured after 4 days in a 5 cm deep soil core around the seed or seedling. The weight ratio of isoxazole: […]” for “strumarium.”
# [10] = dosing regime 2 × 6.25 g/ha (daily applications × dose)
structure (smiles),measurement,setting,value
"CS(=O)(=O)c1cc(C(F)(F)F)ccc1C(=O)c1cnoc1C1CC1 [isoxaflutole, 5-cyclopropyl-4-(2-methylsulphonyl-4-trifluoromethylbenzoyl)isoxazole]",% Damage Amare,[1]; dosing regime 1 × 12.5 g/ha,0%
same,% Damage Amare,[1]; dosing regime 1 × 25 g/ha,8%
same,% Damage Amare,[1]; dosing regime 1 × 50 g/ha,50%
same,% Damage Amare,[1]; dosing regime 1 × 100 g/ha,79%
same,% Damage Amare,[1]; [10],34%
same,% Damage Amare,[1]; dosing regime 2 × 12.5 g/ha,46%
same,% Damage Amare,[1]; dosing regime 2 × 25 g/ha,42%
same,% Damage Amare,[1]; dosing regime 2 × 50 g/ha,78%
same,% Damage Amare,[1]; dosing regime 4 × 6.25 g/ha,80%
same,% Damage Amare,[1]; dosing regime 4 × 12.5 g/ha,79%
same,% Damage Amare,[1]; dosing regime 4 × 25 g/ha,90%
same,% Damage Setvi,[2]; dosing regime 1 × 12.5 g/ha,0%
same,% Damage Setvi,[2]; dosing regime 1 × 25 g/ha,10%
same,% Damage Setvi,[2]; dosing regime 1 × 50 g/ha,24%
same,% Damage Setvi,[2]; dosing regime 1 × 100 g/ha,59%
same,% Damage Setvi,[2]; [10],18%
same,% Damage Setvi,[2]; dosing regime 2 × 12.5 g/ha,42%
same,% Damage Setvi,[2]; dosing regime 2 × 25 g/ha,44%
same,% Damage Setvi,[2]; dosing regime 2 × 50 g/ha,66%
same,% Damage Setvi,[2]; dosing regime 4 × 6.25 g/ha,75%
same,% Damage Setvi,[2]; dosing regime 4 × 12.5 g/ha,91%
same,% Damage Setvi,[2]; dosing regime 4 × 25 g/ha,77%
same,% Damage Echcg,[3]; dosing regime 1 × 12.5 g/ha,0%
same,% Damage Echcg,[3]; dosing regime 1 × 25 g/ha,32%
same,% Damage Echcg,[3]; dosing regime 1 × 50 g/ha,84%
same,% Damage Echcg,[3]; dosing regime 1 × 100 g/ha,94%
same,% Damage Echcg,[3]; [10],18%
same,% Damage Echcg,[3]; dosing regime 2 × 12.5 g/ha,68%
same,% Damage Echcg,[3]; dosing regime 2 × 25 g/ha,70%
same,% Damage Echcg,[3]; dosing regime 2 × 50 g/ha,96%
same,% Damage Echcg,[3]; dosing regime 4 × 6.25 g/ha,97%
same,% Damage Echcg,[3]; dosing regime 4 × 12.5 g/ha,100%
same,% Damage Echcg,[3]; dosing regime 4 × 25 g/ha,100%
CS(=O)(=O)c1cc(C(F)(F)F)ccc1C(=O)c1cnoc1C1CC1 [isoxazole],Activity ECHCG,[4]; dosing regime 1 × 100 g/ha,94
same,Activity ECHCG,[4]; dosing regime 2 × 50 g/ha,96
same,Activity ECHCG,[4]; dosing regime 4 × 25 g/ha,100
same,Activity AMARE,[5]; dosing regime 1 × 100 g/ha,79
same,Activity AMARE,[5]; dosing regime 2 × 50 g/ha,78
same,Activity AMARE,[5]; dosing regime 4 × 25 g/ha,90
same,Activity SETVI,[6]; dosing regime 1 × 100 g/ha,59
same,Activity SETVI,[6]; dosing regime 2 × 50 g/ha,66
same,Activity SETVI,[6]; dosing regime 4 × 25 g/ha,77
same,Activity Maize,[7]; dosing regime 1 × 100 g/ha,8
same,Activity Maize,[7]; dosing regime 2 × 50 g/ha,10
same,Activity Maize,[7]; dosing regime 4 × 25 g/ha,6
same,activity of the isoxazole on the crop,[8],15%
same,activity of the isoxazole on the weeds,[9],95%
